From the RepoRT retention time repository

Assay: RP, Waters CORTECS UPLC C18, 100 × 2.1 mm, 1.6 µm, 40 °C, 0.4 mL/min, estimated dead time 0.55 min; A: water + 0.1% formic acid, pH 3; B: acetonitrile + 0.1% formic acid, pH 3; gradient (min/%B) 0/5 1.12/5 6.41/99.5 10.01/99.5
Conditions: stereoisomer not certain

Compound	LC retention time
CCCCCCCCCC=CC(=O)OC(CC(=O)[O-])C[N+](C)(C)C [trans-2-Dodecenoyl-L-carnitine]	4.5 min
CCCCCC=CC(=O)OC(CC(=O)[O-])C[N+](C)(C)C [trans-2-Octenoyl-L-carnitine]	3.56 min
CCCCCCCCCCCC=CC(=O)OC(CC(=O)[O-])C[N+](C)(C)C [trans-2-Tetradecenoyl-L-carnitine]	4.96 min
